{"source": "patent US20080181972A1", "about": "“Compositions and Methods for Maintaining, Strengthening, Improving, or Promoting Eye Health” (priority 2007, published 2008)", "origin": "cited, not measured here", "key": {"H2O2 formation": {"test_system": "H2O2 formation", "conditions": "both in vitro and in vivo"}, "[1]": {"conditions": "phytoestrogenic isoflavones"}, "LDL": {"test_system": "LDL", "conditions": "conjugated diene, lipid peroxides and TBARS after cupric sulfate"}, "[2]": {"test_system": "bovine aortic endothelial cell- and human endothelial cell-mediated LDL oxidation", "conditions": "bovine aortic and human endothelial cells"}, "[3]": {"conditions": "in vivo"}, "[4]": {"test_system": "human endothelial cell cultures"}, "AGE from Amadori adducts": {"test_system": "AGE from Amadori adducts", "conditions": "in vitro and in vivo studies"}, "intracellular GSH": {"test_system": "intracellular GSH", "conditions": "in vitro (cell culture)"}, "[5]": {"test_system": "intracellular GSH in lung, liver and kidney cells", "conditions": "in vivo, liver and kidney cells of mice injected daily with 4, 8, or 16 mg/kg for 11 days"}, "[6]": {"conditions": "long-term feeding to rats, 1% in drinking water"}, "[7]": {"conditions": "short- and long-term studies"}}}
{"compound": "O=c1c(-c2ccc(O)cc2)coc2cc(O)cc(O)c12", "note": "[genistein]", "values": [{"measurement": "tumor promoter-induced H2O2 formation", "setting": "H2O2 formation", "value": "strongly inhibited"}, {"measurement": "order of reactivity in scavenging the radical in the aqueous phase", "setting": "[1]", "value": "genistein>daidzein=genistin approximately equal to biochanin A=daidzein>formononentin approximately equal to onionin"}, {"measurement": "order of ability to reduce LDL oxidizability", "setting": "LDL", "value": "quercetine>morin>pelargonidin>genistein>naringin>apigenin"}, {"measurement": "endothelial cell-mediated LDL oxidation", "setting": "[2]", "value": "inhibited"}]}
{"compound": "O=C1O[C@H]([C@@H](O)CO)C(O)=C1O", "note": "[vitamin C, Ascorbic acid]", "values": [{"measurement": "daily intake without any known adverse effects", "setting": "consumed daily", "value": "≥ 1,000 mg"}]}
{"compound": "CC1=C(/C=C/C(C)=C/C=C/C(C)=C/C=C/C=C(C)/C=C/C=C(C)/C=C/C2=C(C)CCCC2(C)C)C(C)(C)CCC1", "note": "[beta-carotene, Beta-carotene]", "values": [{"measurement": "efficiency of conversion to vitamin A in the body", "setting": "[3]", "value": "approximately 50%"}, {"measurement": "dosage level with no observed adverse effects", "setting": "healthy, non-smokers", "value": "≤ 25", "unit": "mg per day"}, {"measurement": "adverse effects observed", "setting": "individuals who receive 20 mg/day", "value": "increased risk of fatal coronary heart attacks in men with previous myocardial infarction and an increased risk of lung cancer among male smokers"}]}
{"compound": "Cc1ncc(C[n+]2csc(CCO)c2C)c(N)n1", "note": "[thiamine]", "values": [{"measurement": "AGE generation", "setting": "[4]", "value": "effective in reducing AGE generation"}, {"measurement": "AGE accumulation in the retina", "setting": "retina of diabetic rats", "value": "preventing AGE accumulation"}]}
{"compound": "CC1=C(/C=C/C(C)=C/C=C/C(C)=C/C=C/C=C(C)/C=C/C=C(C)/C=C/C2=C(C)C(=O)[C@@H](O)CC2(C)C)C(C)(C)C[C@H](O)C1=O", "note": "[Astaxanthin]", "values": [{"measurement": "ill effects", "setting": "daily dose of 19.25 mg over 29 days, healthy humans", "value": "no ill effects"}]}
{"compound": "Cc1ncc(CO)c(CN)c1O", "note": "[PM, pyridoxamine]", "values": [{"measurement": "inhibition of the formation of AGE from Amadori adducts", "setting": "AGE from Amadori adducts", "value": "potent inhibitor"}]}
{"compound": "O=C(O)CCCCC1CCSS1", "note": "(stereo not drawn) [ALA, Alpha-lipoic acid]", "values": [{"measurement": "increase of intracellular GSH levels", "setting": "intracellular GSH", "value": "30-70%"}, {"measurement": "increase of intracellular GSH levels", "setting": "[5]", "value": "30-70%"}]}
{"compound": "CC(=O)Oc1c(C)c(C)c2c(c1C)CC[C@@](C)(CCC[C@H](C)CCC[C@H](C)CCCC(C)C)O2", "note": "(racemic) [DL-α-tocopheryl acetate]", "values": [{"measurement": "level at which no adverse effects have been observed", "setting": "in vivo", "value": "≤ 800", "unit": "mg"}]}
{"compound": "NC(=O)c1cccnc1", "note": "[niacinamide]", "values": [{"measurement": "carcinogenic effects", "setting": "[6]", "value": "No carcinogenic effects"}, {"measurement": "toxicity", "setting": "[7]", "value": "low toxicity"}]}
{"compound": "C/C(=C(\\CCOP(=O)(O)O)SC(=O)c1ccccc1)N(C=O)Cc1cnc(C)nc1N", "note": "[benfotiamine]", "values": [{"measurement": "AGE generation", "setting": "[4]", "value": "effective in reducing AGE generation"}, {"measurement": "AGE accumulation in the retina", "setting": "retina of diabetic rats", "value": "preventing AGE accumulation"}]}
